This is an account of results in US20240034723A1, “PIPERIDINYL SMALL MOLECULE DEGRADERS OF HELIOS AND METHODS OF USE” (DANA-FARBER CANCER INSTITUTE, INC., priority 2020, published 2024).

The assay deals with T1, IKZF2 (Helios) (Homo sapiens, UniProt Q96SW2+Q9UKS7).
T1 construct: CRISPR/Cas-mediated insertion of the HiBiT peptide tag (Promega™) to the N-terminus of the IKZF2 gene locus; endogenous in cells; host or cells: MOLT4 cells, CRISPR/Cas knock-in of HiBiT at the endogenous IKZF2 locus
T1 sequence (Q9UKS7 whole entry): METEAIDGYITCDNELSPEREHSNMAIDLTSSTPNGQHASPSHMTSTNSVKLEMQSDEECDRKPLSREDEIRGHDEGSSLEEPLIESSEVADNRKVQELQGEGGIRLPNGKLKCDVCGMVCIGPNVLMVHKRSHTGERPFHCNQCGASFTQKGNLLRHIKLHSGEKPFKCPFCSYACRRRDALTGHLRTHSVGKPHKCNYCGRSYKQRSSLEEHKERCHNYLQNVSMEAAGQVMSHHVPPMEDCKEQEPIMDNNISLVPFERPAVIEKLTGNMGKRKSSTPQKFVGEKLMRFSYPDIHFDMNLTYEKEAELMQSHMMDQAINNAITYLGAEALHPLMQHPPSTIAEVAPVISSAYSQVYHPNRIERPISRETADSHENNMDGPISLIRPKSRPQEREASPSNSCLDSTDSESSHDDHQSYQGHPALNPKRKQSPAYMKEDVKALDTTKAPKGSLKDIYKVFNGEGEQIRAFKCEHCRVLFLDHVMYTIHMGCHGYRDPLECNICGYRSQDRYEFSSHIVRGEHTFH
T1 sequence (Q96SW2 whole entry): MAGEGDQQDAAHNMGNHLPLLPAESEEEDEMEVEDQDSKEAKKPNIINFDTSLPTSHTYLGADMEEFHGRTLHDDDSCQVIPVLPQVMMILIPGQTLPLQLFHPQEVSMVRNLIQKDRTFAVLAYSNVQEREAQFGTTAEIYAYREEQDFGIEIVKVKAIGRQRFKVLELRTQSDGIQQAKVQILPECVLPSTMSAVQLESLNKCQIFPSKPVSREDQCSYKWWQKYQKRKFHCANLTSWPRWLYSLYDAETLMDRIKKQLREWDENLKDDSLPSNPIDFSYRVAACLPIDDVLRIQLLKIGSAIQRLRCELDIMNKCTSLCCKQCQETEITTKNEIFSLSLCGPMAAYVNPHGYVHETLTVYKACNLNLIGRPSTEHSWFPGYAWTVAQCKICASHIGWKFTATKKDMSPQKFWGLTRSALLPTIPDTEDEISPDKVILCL
T1 sequence (Q16531 whole entry partner): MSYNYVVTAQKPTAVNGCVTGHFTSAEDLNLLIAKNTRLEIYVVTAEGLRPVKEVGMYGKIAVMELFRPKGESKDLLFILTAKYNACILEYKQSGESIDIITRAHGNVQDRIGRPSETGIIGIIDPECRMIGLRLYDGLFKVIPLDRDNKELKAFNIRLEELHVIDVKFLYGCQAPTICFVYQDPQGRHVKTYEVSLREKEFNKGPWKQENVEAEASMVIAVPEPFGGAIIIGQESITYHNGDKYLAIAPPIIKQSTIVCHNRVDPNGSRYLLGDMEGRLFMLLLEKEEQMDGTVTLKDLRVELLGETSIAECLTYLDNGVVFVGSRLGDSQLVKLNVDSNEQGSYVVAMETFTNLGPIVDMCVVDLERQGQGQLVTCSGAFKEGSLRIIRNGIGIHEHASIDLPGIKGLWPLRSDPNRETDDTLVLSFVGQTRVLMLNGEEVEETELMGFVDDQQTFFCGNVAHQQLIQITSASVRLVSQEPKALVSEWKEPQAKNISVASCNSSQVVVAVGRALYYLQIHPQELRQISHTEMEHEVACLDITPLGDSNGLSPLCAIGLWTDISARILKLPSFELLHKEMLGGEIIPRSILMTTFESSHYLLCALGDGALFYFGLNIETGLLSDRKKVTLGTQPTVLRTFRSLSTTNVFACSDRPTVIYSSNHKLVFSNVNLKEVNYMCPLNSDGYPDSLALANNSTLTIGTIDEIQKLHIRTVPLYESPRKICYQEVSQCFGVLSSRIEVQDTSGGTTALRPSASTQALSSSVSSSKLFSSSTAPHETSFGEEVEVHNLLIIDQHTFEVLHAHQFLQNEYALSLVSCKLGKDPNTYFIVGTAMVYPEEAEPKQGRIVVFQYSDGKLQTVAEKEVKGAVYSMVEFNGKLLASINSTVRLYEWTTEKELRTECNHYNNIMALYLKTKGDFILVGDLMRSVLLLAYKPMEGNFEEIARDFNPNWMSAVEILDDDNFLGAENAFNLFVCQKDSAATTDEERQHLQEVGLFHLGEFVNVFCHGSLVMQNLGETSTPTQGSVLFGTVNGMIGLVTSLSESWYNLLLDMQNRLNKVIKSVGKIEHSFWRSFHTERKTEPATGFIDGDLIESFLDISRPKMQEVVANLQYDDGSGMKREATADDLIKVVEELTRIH
Put plainly: MOLT4 IKZF2 HiBit assay protocol (Example 64). In kind it is cell-based. Conditions: MOLT4 IKZF2 HiBit cells, 10-point 30 μM to 1 nM; table title: after 6 hours of treatment (method: incubated 24 hours). Here is the method:
This protocol uses MOLT4 cells that were engineered using CRISPR/Cas9-mediated genomic insertion of HiBit, tagged to the N terminus of the IKZF2 coding sequence. Day 1. Created a 10-point dose response starting from 30 μM down to 1 nM using a Tecan D300e. Next added 8,000 cells/well of the MOLT4 IKZF2 HiBit cells to the compound plate. […] Day 2. Added Nano-Glo® HiBit Lytic Buffer/Nano-Glo® HiBit Lytic substrate/LgBit Protein mix to each well and incubated for 15 minutes. Finally, read luminescence signal using a BMG Labtech PHERAstar® FSX. Data was normalized to DMSO and graphed using GraphPad Prism to determine the concentration points at which 50% of HiBiT-Helios degradation was achieved by each compound. The extent of degradation (range of luminescence) from the highest to lowest concentration points was calculated to determine Dmax.
(HiBiT is a short tag that completes a luciferase, so light tracks the accessible tagged protein.)
As for `O=C1CCC(N2Cc3cc(C4CCN(Cc5ccc6ncn(-c7cccc(F)c7)c(=O)c6c5)CC4)ccc3C2=O)C(=O)N1` (stereo not drawn) [Compound 28, 3-(5-(1-((3-(3-fluorophenyl)-4-oxo-3,4-dihydroquinazolin-6-yl)methyl)piperidin-4-yl)-1-oxoisoindolin-2-yl)piperidine-2,6-dione], the DC50 was in the range of 5 to 25 nM.

In turn, `O=C1CCC(N2Cc3cc(C4CCN(Cc5ccc6nc(-c7ccccc7)cn6c5)CC4)ccc3C2=O)C(=O)N1` (stereo not drawn) [Compound 54, 3-(1-oxo-5-(1-((2-phenylimidazo[1,2-a]pyridin-6-yl)methyl)piperidin-4-yl)isoindolin-2-yl)piperidine-2,6-dione] returned a DC50 below 5 nM.

`O=C1CCC(N2Cc3cc(C4CCN(Cc5ccc6nc(-c7ccccc7)nn6c5)CC4)ccc3C2=O)C(=O)N1` (stereo not drawn) [Compound 55, 3-(1-oxo-5-(1-((2-phenyl-[1,2,4]triazolo[1,5-a]pyridin-6-yl)methyl)piperidin-4-yl)isoindolin-2-yl)piperidine-2,6-dione] showed a DC50 of 25 to 100 nM.

As to `O=C1CCC(N2Cc3cc(C4CCN(Cc5ccc6ncn(-c7cccc(C(F)(F)F)c7)c(=O)c6c5)CC4)ccc3C2=O)C(=O)N1` (stereo not drawn) [Compound 60, 3-(1-oxo-5-(1-((4-oxo-3-(3-(trifluoromethyl)phenyl)-3,4-dihydroquinazolin-6-yl)methyl)piperidin-4-yl)isoindolin-2-yl)piperidine-2,6-dione], the DC50 fell in the range of 5 to 25 nM.

`N#Cc1cccc(-n2cnc3ccc(CN4CCC(c5ccc6c(c5)CN(C5CCC(=O)NC5=O)C6=O)CC4)cc3c2=O)c1` (stereo not drawn) [Compound 61, 3-(6-((4-(2-(2,6-dioxopiperidin-3-yl)-1-oxoisoindolin-5-yl)piperidin-1-yl)methyl)-4-oxoquinazolin-3(4H)-yl)benzonitrile] showed a DC50 of 5 to 25 nM.

For `Cc1cccc(-n2cnc3ccc(CN4CCC(c5ccc6c(c5)CN(C5CCC(=O)NC5=O)C6=O)CC4)cc3c2=O)n1` (stereo not drawn) [Compound 62, 3-(5-(1-((3-(6-methylpyridin-2-yl)-4-oxo-3,4-dihydroquinazolin-6-yl)methyl)piperidin-4-yl)-1-oxoisoindolin-2-yl)piperidine-2,6-dione], the DC50 lay in the range of 5 to 25 nM.

`CC(C)c1cccc(-n2cnc3ccc(CN4CCC(c5ccc6c(c5)CN(C5CCC(=O)NC5=O)C6=O)CC4)cc3c2=O)n1` (stereo not drawn) [Compound 63, 3-(5-(1-((3-(6-isopropylpyridin-2-yl)-4-oxo-3,4-dihydroquinazolin-6-yl)methyl)piperidin-4-yl)-1-oxoisoindolin-2-yl)piperidine-2,6-dione] returned a DC50 of 5 to 25 nM.

Consider `O=C1CCC(N2Cc3cc(C4CCN(Cc5ccc6ncn(-c7cccc(C(F)(F)F)n7)c(=O)c6c5)CC4)ccc3C2=O)C(=O)N1` (stereo not drawn) [Compound 64, 3-(1-oxo-5-(1-((4-oxo-3-(6-(trifluoromethyl)pyridin-2-yl)-3,4-dihydroquinazolin-6-yl)methyl)piperidin-4-yl)isoindolin-2-yl)piperidine-2,6-dione], for which the DC50 lay in the range of 5 to 25 nM.

`COc1cccc(-n2cnc3ccc(CN4CCC(c5ccc6c(c5)CN(C5CCC(=O)NC5=O)C6=O)CC4)cc3c2=O)n1` (stereo not drawn) [Compound 65, 3-(5-(1-((3-(6-methoxypyridin-2-yl)-4-oxo-3,4-dihydroquinazolin-6-yl)methyl)piperidin-4-yl)-1-oxoisoindolin-2-yl)piperidine-2,6-dione] showed a DC50 of 5 to 25 nM.

Consider `O=C1CCC(N2Cc3cc(C4CCN(Cc5ccc6ncn(-c7cccnc7)c(=O)c6c5)CC4)ccc3C2=O)C(=O)N1` (stereo not drawn) [Compound 67, 3-(1-oxo-5-(1-((4-oxo-3-(pyridin-3-yl)-3,4-dihydroquinazolin-6-yl)methyl)piperidin-4-yl)isoindolin-2-yl)piperidine-2,6-dione], for which the DC50 lay within 5 to 25 nM.

The compound `Cc1ncccc1-n1cnc2ccc(CN3CCC(c4ccc5c(c4)CN(C4CCC(=O)NC4=O)C5=O)CC3)cc2c1=O` (stereo not drawn) [Compound 68, 3-(5-(1-((3-(2-methylpyridin-3-yl)-4-oxo-3,4-dihydroquinazolin-6-yl)methyl)piperidin-4-yl)-1-oxoisoindolin-2-yl)piperidine-2,6-dione] yielded a DC50 below 5 nM.

As for `Cc1ccc(-n2cnc3ccc(CN4CCC(c5ccc6c(c5)CN(C5CCC(=O)NC5=O)C6=O)CC4)cc3c2=O)cn1` (stereo not drawn) [Compound 69, 3-(5-(1-((3-(6-methylpyridin-3-yl)-4-oxo-3,4-dihydroquinazolin-6-yl)methyl)piperidin-4-yl)-1-oxoisoindolin-2-yl)piperidine-2,6-dione], the “IKZF2 DC50 (M)” value is given as “+ +”.

In turn, `O=C1CCC(N2Cc3cc(C4CCN(Cc5ccc6ncn(-c7cncc(F)c7)c(=O)c6c5)CC4)ccc3C2=O)C(=O)N1` (stereo not drawn) [Compound 75, 3-(5-(1-((3-(5-fluoropyridin-3-yl)-4-oxo-3,4-dihydroquinazolin-6-yl)methyl)piperidin-4-yl)-1-oxoisoindolin-2-yl)piperidine-2,6-dione] came in with a DC50 of 25 to 100 nM.

The compound `Cn1cc(-n2cnc3ccc(CN4CCC(c5ccc6c(c5)CN(C5CCC(=O)NC5=O)C6=O)CC4)cc3c2=O)cn1` (stereo not drawn) [Compound 82, 3-(5-(1-((3-(1-methyl-1H-pyrazol-4-yl)-4-oxo-3,4-dihydroquinazolin-6-yl)methyl)piperidin-4-yl)-1-oxoisoindolin-2-yl)piperidine-2,6-dione] showed a DC50 of 5 to 25 nM.

In turn, `Cc1nc2ccc(CN3CCC(c4ccc5c(c4)CN(C4CCC(=O)NC4=O)C5=O)CC3)cc2c(=O)n1-c1ccccc1` (stereo not drawn) [Compound 83, 3-(5-(1-((2-methyl-4-oxo-3-phenyl-3,4-dihydroquinazolin-6-yl)methyl)piperidin-4-yl)-1-oxoisoindolin-2-yl)piperidine-2,6-dione] yielded a DC50 below 5 nM.

In turn, `Cc1nc2ccc(CN3CCC(c4ccc5c(c4)CN(C4CCC(=O)NC4=O)C5=O)CC3)cc2c(=O)n1-c1ccccn1` (stereo not drawn) [Compound 84, 3-(5-(1-((2-methyl-4-oxo-3-(pyridin-2-yl)-3,4-dihydroquinazolin-6-yl)methyl)piperidin-4-yl)-1-oxoisoindolin-2-yl)piperidine-2,6-dione] displayed a DC50 below 5 nM.

`O=C1CCC(N2Cc3c(ccc(C4CCN(Cc5ccc6ncn(-c7ccccn7)c(=O)c6c5)CC4)c3F)C2=O)C(=O)N1` (stereo not drawn) [Compound 85, 3-(4-fluoro-1-oxo-5-(1-((4-oxo-3-(pyridin-2-yl)-3,4-dihydroquinazolin-6-yl)methyl)piperidin-4-yl)isoindolin-2-yl)piperidine-2,6-dione] showed a DC50 of 25 to 100 nM.

Take `O=C1CCC(N2Cc3cc(C4CCN(Cc5cc6c(=O)n(-c7ccccn7)cnc6cc5F)CC4)ccc3C2=O)C(=O)N1` (stereo not drawn) [Compound 87, 3-(5-(1-((7-fluoro-4-oxo-3-(pyridin-2-yl)-3,4-dihydroquinazolin-6-yl)methyl)piperidin-4-yl)-1-oxoisoindolin-2-yl)piperidine-2,6-dione]: the DC50 is below 5 nM.

Compound `O=C1CCC(N2Cc3c(ccc(C4CCN(Cc5ccc6ncn(-c7cccnc7)c(=O)c6c5)CC4)c3F)C2=O)C(=O)N1` (stereo not drawn) [Compound 89, 3-(4-fluoro-1-oxo-5-(1-((4-oxo-3-(pyridin-3-yl)-3,4-dihydroquinazolin-6-yl)methyl)piperidin-4-yl)isoindolin-2-yl)piperidine-2,6-dione] had a DC50 of 5 to 25 nM.

On to `O=C1CCC(N2Cc3cc(C4CCN(Cc5ccc6cc(-c7ccccn7)nn6c5)CC4)ccc3C2=O)C(=O)N1` (stereo not drawn) [Compound 92, 3-(1-oxo-5-(1-((2-(pyridin-2-yl)pyrazolo[1,5-a]pyridin-6-yl)methyl)piperidin-4-yl)isoindolin-2-yl)piperidine-2,6-dione], for which the DC50 was in the range of 5 to 25 nM.

`O=C1CCC(N2Cc3cc(C4CCN(Cc5cn6cc(-c7ccccc7)ccc6n5)CC4)ccc3C2=O)C(=O)N1` (stereo not drawn) [Compound 96, 3-(1-oxo-5-(1-((6-phenylimidazo[1,2-a]pyridin-2-yl)methyl)piperidin-4-yl)isoindolin-2-yl)piperidine-2,6-dione]: the DC50 fell in the range of 25 to 100 nM.

`O=C1CCC(N2Cc3cc(C4CCN(Cc5cn6cc(-c7cccnc7)ccc6n5)CC4)ccc3C2=O)C(=O)N1` (stereo not drawn) [Compound 97, 3-(1-oxo-5-(1-((6-(pyridin-3-yl)imidazo[1,2-a]pyridin-2-yl)methyl)piperidin-4-yl)isoindolin-2-yl)piperidine-2,6-dione]: the DC50 lay within 25 to 100 nM.

Turning to `O=C1CCC(N2Cc3cc(C4CCN(Cc5cn6ccc(-c7ccccc7)cc6n5)CC4)ccc3C2=O)C(=O)N1` (stereo not drawn) [Compound 98, 3-(1-oxo-5-(1-((7-phenylimidazo[1,2-a]pyridin-2-yl)methyl)piperidin-4-yl)isoindolin-2-yl)piperidine-2,6-dione], the DC50 was 25 to 100 nM.

In turn, `O=C1CCC(N2Cc3cc(C4CCN(Cc5cn6ccc(-c7cccnc7)cc6n5)CC4)ccc3C2=O)C(=O)N1` (stereo not drawn) [Compound 99, 3-(1-oxo-5-(1-((7-(pyridin-3-yl)imidazo[1,2-a]pyridin-2-yl)methyl)piperidin-4-yl)isoindolin-2-yl)piperidine-2,6-dione] showed a DC50 of 25 to 100 nM.
